Assay in all cases: Post-emergence herbicidal action against harmful plants (greenhouse)
Holding throughout (type): in vivo

The test system of experiment [1] is Xanthium strumarium (XANST).
The test system of a further experiment is Solanum nigrum (SOLNI). The method, then: (§1) Seeds of monocotyledonous and dicotyledonous weed and crop plants are laid out in sandy loam soil in wood-fibre pots, covered with soil and cultivated in a greenhouse under good growth conditions. 2 to 3 weeks after sowing, the test plants are treated at the one-leaf stage. The compounds of the invention, formulated in the form of wettable powders (WP) or as emulsion concentrates (EC), are then sprayed onto the green parts of the plants in the form of an aqueous suspension or emulsion at a water application rate equivalent to 600 to 800 l/ha, with addition of 0.2% wetting agent. After the test plants have been […], the action of the preparations is assessed visually in comparison to untreated controls (herbicidal action in percent (%): 100% activity=the plants have died, 0% activity=like control plants). […] The tables below illustrate, in an illustrative manner, the post-emergence herbicidal action of the compounds of the invention, the herbicidal activity being stated in percent.
(§2) In the tables that follow, the abbreviations mean the following: • E: means the synergism value to be expected according to the Colby formula. • Δ SYN: means the difference between the actual and expected synergism value. • DAT: means days after treatment.

The subject of experiment [2] is Abutilon theophrasti (ABUTH). The method, then:
as §1, §2

For experiment [3], the system named is Sorghum halepense (SORHA). The method, then:
(§3) Seeds of monocotyledonous and dicotyledonous weed and crop plants are laid out in sandy loam soil in wood-fibre pots, covered with soil and cultivated in a greenhouse under good growth conditions. 2 to 3 weeks after sowing, the test plants are treated at the one-leaf stage. The compounds of the invention, formulated in the form of wettable powders (WP) or as emulsion concentrates (EC), are then sprayed onto the green parts of the plants in the form of an aqueous suspension or emulsion at a water application rate equivalent to 600 to 800 l/ha, with addition of 0.2% wetting agent. After the test plants have been left to stand in the greenhouse under optimal growth conditions for about 3 weeks, the action of the preparations is assessed visually in comparison to untreated controls (herbicidal action in percent (%): 100% activity=the plants have died, 0% activity=like control plants). […] The tables below illustrate, in an illustrative manner, the post-emergence herbicidal action of the compounds of the invention, the herbicidal activity being stated in percent.
as §2

The next experiment concerns Emex australis (EMEAU). The method, then: as §3, §2
Experiment [4] relates to Xanthium strumarium (XANST). The method, then:
as §3, §2
This is another data set of the same source.

Experiment [5] relates to Polygonum convolvulus (POLCO).
A further experiment relates to Setaria viridis (SETVI). The method, then:
as §1, §2

Experiment [6] concerns Erigeron bonariensis (ERIBO). The method, then:
as §1, §2

Another experiment concerns Cyperus iria (CYPIR). The method, then:
as §1, §2

Experiment [7] relates to Brachiaria platyphylla (BRAPP). The method, then:
as §3, §2

In experiment [8] the test system is Pharbitis purpurea (PHBPU).
In experiment [9] the test system is Euphorbia heterophylla (EPHHL). The method, then:
as §3, §2

The mark [10] stands for this setting: application rate 0.025 g a.i./ha, 21 DAT.
[11] abbreviates: application rate 0.025 g a.i./ha.
[12] abbreviates: application rate 0.00625 g a.i./ha.
The mark [13] stands for this setting: application rate 0.25 g a.i./ha.

As for `C=C[C@]1(C(=O)N[C@H]2CO[C@@H](C(=O)OC)C2)CC(c2cc(F)cc(F)c2)=NO1` (relative stereo) [P1, methyl (2R*,4R*)-4-[[(5S)-3-(3,5-difluorophenyl)-5-vinyl-4H-isoxazole-5-carbonyl]amino]tetrahydrofuran-2-carboxylate], the “Herbicidal efficacy [%] against XANST 10 DAT” value in experiment [1] (application rate 0.3 g a.i./ha) is 60%. Besides, the Herbicidal efficacy in the experiment on Solanum nigrum (SOLNI) (SOLNI 10 DAT, 0.3 g a.i./ha) came out at 40%; in experiment [2] (ABUTH 10 DAT, 0.3 g a.i./ha) it was 70%; in [2] (ABUTH 21 DAT, 1.2 g a.i./ha), 85%; with Emex australis (EMEAU) (EMEAU 10 DAT, 1.2 g a.i./ha), 70%; in the experiment with Emex australis (EMEAU) (EMEAU 21 DAT, 1.2 g a.i./ha) it was 80%. The “Herbicidal efficacy [%] against SORHA 21 DAT” value in experiment [3] (application rate 0.3 g a.i./ha) and in [3] (application rate 1.2 g a.i./ha) was 90% throughout. For the same compound, in experiment [4] (application rate 0.3 g a.i./ha), the “Herbicidal efficacy [%] against XANST 21 DAT” value came to 40%.
With `Cc1cccc(C)c1-n1c(=O)c2cc(C(=O)C3C(=O)CCCC3=O)ccc2n(C)c1=O` [benquitrione], the “Herbicidal efficacy [%] against XANST 21 DAT” value in [1] (application rate 6 g a.i./ha) is reported as 50%. Besides, the Herbicidal efficacy in [5] (POLCO 10 DAT, 6 g a.i./ha) amounted to 20%; in the experiment on Setaria viridis (SETVI) (SETVI 10 DAT, 6 g a.i./ha) it was 88%; in the experiment on Setaria viridis (SETVI) (SETVI 21 DAT, 1.5 g a.i./ha), 50%; in the experiment with Solanum nigrum (SOLNI) (SOLNI 21 DAT, 6 g a.i./ha) it was 85%; in [6] (ERIBO 10 DAT, 6 g a.i./ha) it was 85%; in experiment [6] (ERIBO 21 DAT, 6 g a.i./ha) it was 85%. For the same compound, the Herbicidal efficacy in experiment [2] (ABUTH 10 DAT, 1.5 g a.i./ha) is listed as 20%; in experiment [2] (ABUTH 10 DAT, 6 g a.i./ha) it was 40%; in [2] (ABUTH 21 DAT, 6 g a.i./ha), 10%; in the experiment on Cyperus iria (CYPIR) (CYPIR 10 DAT, 1.5 g a.i./ha), 40%; with Cyperus iria (CYPIR) (CYPIR 21 DAT, 1.5 g a.i./ha), 30%; in experiment [7] (BRAPP 10 DAT, 1.5 g a.i./ha), 20%. In addition, the Herbicidal efficacy in [7] (BRAPP 10 DAT, 6 g a.i./ha) worked out at 80%; in experiment [7] (BRAPP 21 DAT, 1.5 g a.i./ha) it was 10%; in experiment [7] (BRAPP 21 DAT, 6 g a.i./ha), 20%; in experiment [8] (PHBPU 10 DAT, 6 g a.i./ha), 40%; in experiment [8] (PHBPU 21 DAT, 6 g a.i./ha), 20%. Moreover, the “Herbicidal efficacy [%] against SORHA 10 DAT” value in experiment [3] (application rate 1.5 g a.i./ha) was found to be 10%; in [3] (application rate 6 g a.i./ha) it was 20%. Moreover, the figures for the “Herbicidal efficacy [%] against SORHA 21 DAT” value in [3] (application rate 1.5 g a.i./ha) and in experiment [3] (application rate 6 g a.i./ha) were 0% and 10%, respectively.
With `COC(=O)[C@@H](C)O/N=C/c1cc(-n2c(=O)cc(C(F)(F)F)n(C)c2=O)c(F)cc1Cl` [flufenoximacil], the “Herbicidal efficacy [%] against POLCO 21 DAT” value in experiment [5] (setting [10]) worked out at 60%. Also, the “Herbicidal efficacy [%] against ERIBO 21 DAT” value is on record as 40% in experiment [6] (setting [11]) and 60% in [6] (application rate 0.1 g a.i./ha). Besides, in experiment [3] (setting [12]), the “Herbicidal efficacy [%] against SORHA 10 DAT” value was determined as 20%. Besides, the “Herbicidal efficacy [%] against EPHHL 21 DAT” value in [9] (setting [12]) was found to be 40%; in experiment [9] (setting [11]), 88%. In addition, the “Herbicidal efficacy [%] against EMEAU 10 DAT” value with Emex australis (EMEAU) (application rate 0.00625 g a.i./ha, 10 DAT) was 50%. Further, the “Herbicidal efficacy [%] against EMEAU 21 DAT” value in the experiment with Emex australis (EMEAU) (application rate 0.00625 g a.i./ha, 21 DAT) is listed as 10%. In addition, the “Herbicidal efficacy [%] against XANST 21 DAT” value in experiment [4] (setting [12]) is 10%. For the same compound, the “Herbicidal efficacy [%] against PHBPU 21 DAT” value in experiment [8] (setting [10]) is reported as 75%.
Turning to `COC(=O)CCNC(=O)C(C)Sc1cc(-n2c(=O)cc(C(F)(F)F)n(C)c2=O)c(F)cc1Cl` (centres unmarked) [tiafenacil], in experiment [1] (application rate 1 g a.i./ha), the “Herbicidal efficacy [%] against XANST 10 DAT” value is on record as 88% and the “Herbicidal efficacy [%] against XANST 21 DAT” value is listed as 85%. Further, in the experiment on Solanum nigrum (SOLNI) (application rate 1 g a.i./ha), the “Herbicidal efficacy [%] against SOLNI 10 DAT” value worked out at 88% and the “Herbicidal efficacy [%] against SOLNI 21 DAT” value was found to be 60%. Also, the Herbicidal efficacy in the experiment on Cyperus iria (CYPIR) (CYPIR 21 DAT, 0.25 g a.i./ha) is 88%. Besides, in experiment [7] (BRAPP 21 DAT, 1 g a.i./ha), the Herbicidal efficacy was determined as 40%. In addition, in [3] (application rate 1 g a.i./ha), the “Herbicidal efficacy [%] against SORHA 21 DAT” value was determined as 85%.
Take `CCn1ncc(C(=O)c2ccc(S(C)(=O)=O)c(OCCOC)c2C)c1OC(C)OC(=O)OC` (centres unmarked) [tolpyralate]: the Herbicidal efficacy turned out to be 30% in experiment [5] (POLCO 10 DAT, 0.5 g a.i./ha); 20% in [5] (POLCO 21 DAT, 0.5 g a.i./ha); 60% with Setaria viridis (SETVI) (SETVI 21 DAT, 0.5 g a.i./ha); 88% in the experiment with Setaria viridis (SETVI) (SETVI 21 DAT, 2 g a.i./ha); 90% in [6] (ERIBO 10 DAT, 2 g a.i./ha); 85% in experiment [6] (ERIBO 21 DAT, 2 g a.i./ha). Further, the Herbicidal efficacy in the experiment on Cyperus iria (CYPIR) (CYPIR 10 DAT, 0.5 g a.i./ha) is reported as 40%; in the experiment with Cyperus iria (CYPIR) (CYPIR 21 DAT, 0.5 g a.i./ha), 20%; in the experiment with Cyperus iria (CYPIR) (CYPIR 21 DAT, 2 g a.i./ha), 30%; in [7] (BRAPP 10 DAT, 0.5 g a.i./ha), 30%; in [7] (BRAPP 21 DAT, 0.5 g a.i./ha), 20%; in [7] (BRAPP 21 DAT, 2 g a.i./ha), 80%. The Herbicidal efficacy is 10% in experiment [8] (PHBPU 10 DAT, 0.5 g a.i./ha) and 10% in experiment [8] (PHBPU 21 DAT, 0.5 g a.i./ha). In addition, the “Herbicidal efficacy [%] against SOLNI 21 DAT” value in the experiment on Solanum nigrum (SOLNI) (application rate 0.5 g a.i./ha) was 85%. For the same compound, in experiment [3] (application rate 2 g a.i./ha), the “Herbicidal efficacy [%] against SORHA 10 DAT” value is reported as 85%. Further, the “Herbicidal efficacy [%] against SORHA 21 DAT” value in [3] (application rate 2 g a.i./ha) was 50%. Further, the “Herbicidal efficacy [%] against XANST 21 DAT” value is 30% in [4] (application rate 0.5 g a.i./ha) and 70% in [4] (application rate 2 g a.i./ha).
Consider `C#CCN1C(=O)C(F)(F)Oc2cc(F)c(-n3c(=O)n(C)c(=S)n(C)c3=O)cc21` [trifludimoxazin], for which the Herbicidal efficacy is 85% in the experiment on Setaria viridis (SETVI) (SETVI 10 DAT, 0.25 g a.i./ha); 70% with Setaria viridis (SETVI) (SETVI 21 DAT, 0.25 g a.i./ha); 88% in experiment [2] (ABUTH 10 DAT, 0.25 g a.i./ha); 85% in [2] (ABUTH 10 DAT, 1 g a.i./ha); 80% in experiment [2] (ABUTH 21 DAT, 0.25 g a.i./ha); 75% in experiment [2] (ABUTH 21 DAT, 1 g a.i./ha). Also, the Herbicidal efficacy in experiment [7] (BRAPP 10 DAT, 1 g a.i./ha) was found to be 80%; in experiment [9] (EPHHL 21 DAT, 0.25 g a.i./ha), 88%; in the experiment with Emex australis (EMEAU) (EMEAU 21 DAT, 1 g a.i./ha), 85%; in [8] (PHBPU 21 DAT, 1 g a.i./ha), 80%. Besides, the “Herbicidal efficacy [%] against SOLNI 10 DAT” value with Solanum nigrum (SOLNI) (application rate 1 g a.i./ha) is on record as 88%. Also, the “Herbicidal efficacy [%] against SOLNI 21 DAT” value in the experiment with Solanum nigrum (SOLNI) (application rate 1 g a.i./ha) came to 60%. Also, the “Herbicidal efficacy [%] against SORHA 10 DAT” value in experiment [3] (setting [13]) stood at 70%; in [3] (application rate 1 g a.i./ha), 85%. In addition, the “Herbicidal efficacy [%] against SORHA 21 DAT” value in experiment [3] (setting [13]) is recorded as 40%; in experiment [3] (application rate 1 g a.i./ha), 70%.

For the origin of these results see patent US20260068885A1, “HERBICIDAL COMPOSITIONS” (BAYER AKTIENGESELLSCHAFT, priority 2022, published 2026).
